{"source": "patent US11155586B2", "about": "“Cystine knot scaffold platform” (Genentech, Inc., priority 2015, dated 2021)", "key": {"hVEGF-A (8-109)": {"biological_target": "T1, hVEGF-A (8-109) (Homo sapiens, UniProt P15692)", "T1 sequence (P15692 34-135 isoform P15692-4)": "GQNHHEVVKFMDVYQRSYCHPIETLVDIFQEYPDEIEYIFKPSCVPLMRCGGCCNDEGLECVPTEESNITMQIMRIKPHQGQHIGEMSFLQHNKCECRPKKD", "experiment": "SPR binding assay (BIACORE 3000, 37° C.)", "method": "Depending on the format of the assay either a streptavidin sensor (SA) or a dextran-coated (CM5) sensor was utilized as described below.\nFor use with the SA sensor, VEGF-A was first biotinylated (no more than 2 biotin/VEGF-A) by incubating the protein with EZ-link NHS-PEG4-Biotin (Pierce) in a 1:1.5 molar ratio respectively, in PBS for 2 hours on ice. Reaction was then quenched by addition of 10 molar excess of Glycine pH 8.0 and the sample was buffer exchanged into PBS using an Amicon 0.5 mL 3000 MWCO ultra-centrifugal filters (EMD Millipore). The biotinylation state of the protein was verified by LC-MS analysis. Biotinylated VEGF-A was then captured on the surface until a resonance unit (RU) signal of about ˜400. For immobilization of VEGF-A on CM5 sensor, the surface was first activated with a mixture of N-ethyl-N′-(3-dimethylaminopropyl)carbodiimide hydrochloride and N-hydroxysuccinimide (EDC/NHS) according to the supplier instructions. VEGF-A was then diluted into coupling buffer (0.1 M Acetate Buffer, pH 5.0) and injected until the signal reached about ˜400 RU followed by a wash with 1 M ethanolamine pH 8.0 to quench remaining activated sites.\nFollowing the capture step, a series of the peptide concentrations were prepared in HBS-EP buffer with matching DMSO concentrations to 0.1% and injected at a flow rate of […]. The resulting sensorgrams were then analyzed using a 1:1 binding model to obtain kinetic data and affinities using Scrubber 2.0 (BioLogic Software)."}, "hVEGF(8-109)": {"biological_target": "T2, hVEGF(8-109) (Homo sapiens, UniProt P15692)", "T2 construct": "hVEGF(8-109) or BSA were coated on 384-well MAXISORP™ immunoplates", "T2 sequence (P15692 214-315)": "T1 sequence (P15692 34-135 isoform P15692-4)", "experiment": "Spot phage ELISA", "assay_type": "binding", "in_short": "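After four selection rounds, phage supernatants from single clones (1:3 in PBT) were added to wells coated with hVEGF(8-109) or BSA; binding detected with anti-M13-HRP and TMB. Positive clones had target signal more than 3 times BSA background.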"}, "[1]": {"settings": "loop 2 variants based on VEGF_CKP9.63 framework, Table 27"}}, "note": "Positions of bridges follow the written chain, without caps; N, C: chain ends. Residues, ends and D or L forms follow the SMILES beside them.", "data": [{"smiles": "CSCC[C@@H]1NC(=O)[C@H](CC(C)C)NC(=O)[C@H](CCC(N)=O)NC(=O)[C@@H](NC(=O)CN)CSSC[C@@H](C(=O)N[C@H](C(=O)N[C@H]2CSSC[C@@H](C(=O)NCC(=O)O)NC(=O)[C@H](CO)NC(=O)[C@H](CCC(N)=O)NC(=O)[C@H](Cc3ccc(O)cc3)NC(=O)[C@H](Cc3c[nH]c4ccccc34)NC(=O)[C@H](Cc3c[nH]cn3)NC2=O)C(C)C)NC(=O)CNC(=O)[C@H](C)NC(=O)[C@H](CC(C)C)NC(=O)[C@@H]2CSSC[C@H](NC(=O)CNC(=O)[C@H](Cc3c[nH]c4ccccc34)NC(=O)[C@H](Cc3ccccc3)NC(=O)[C@@H]3CCCN3C(=O)[C@H](CCC(N)=O)NC1=O)C(=O)N[C@@H](CCCCN)C(=O)N[C@@H](CCC(N)=O)C(=O)N[C@@H](CC(=O)O)C(=O)N[C@@H](CO)C(=O)N[C@@H](CC(=O)O)C(=O)N2", "note": "[VEGF_CKP9] (H-GCQLMQPFWGCKQDSDCLAGCVCHWYQSCG-OH; disulfide 2-21, 11-17, 23-29 (inferred); N-terminus and C-terminus assumed)", "values": [{"measurement": "kd", "setting": "hVEGF-A (8-109); Table 37, surface plasmon resonance, VEGF-A", "result": 40}, {"measurement": "S/N (signal to noise ratio as compared to BSA control)", "setting": "hVEGF(8-109); Table 19", "result": 36.0}, {"measurement": "S/N (signal to noise ratio as compared to BSA control)", "setting": "hVEGF(8-109); Table 22", "result": 7.4}, {"measurement": "S/N (signal to noise ratio as compared to BSA control)", "setting": "hVEGF(8-109); Table 23", "result": 11.6}, {"measurement": "S/N (signal to noise ratio as compared to BSA control)", "setting": "hVEGF(8-109); Table 24", "result": 7.4}, {"measurement": "ELISA", "setting": "hVEGF(8-109); VEGF_CKP9 Loop1/Loop5 affinity-matured variants, Table 24", "result": 0.4}, {"measurement": "ELISA", "setting": "hVEGF(8-109); VEGF_CKP9 Loop1 affinity-matured variants, Table 22", "result": 0.4}, {"measurement": "ELISA", "setting": "hVEGF(8-109); VEGF_CKP9 Loop5 affinity-matured variants, Table 23", "result": 0.9}, {"measurement": "ELISA", "setting": "hVEGF(8-109); spot phage ELISA signal, EETI-II-based binders against hVEGF-A, Table 19", "result": 3.3}]}, {"smiles": "CSCC[C@@H]1NC(=O)[C@H](C(C)C)NC(=O)[C@H](CC(=O)O)NC(=O)[C@@H](NC(=O)CN)CSSC[C@@H](C(=O)N[C@H](C(=O)N[C@H]2CSSC[C@@H](C(=O)NCC(=O)O)NC(=O)[C@H](CO)NC(=O)[C@H](CC(N)=O)NC(=O)[C@H](Cc3ccc(O)cc3)NC(=O)[C@H](Cc3c[nH]c4ccccc34)NC(=O)[C@H](Cc3c[nH]cn3)NC2=O)C(C)C)NC(=O)CNC(=O)[C@H](C)NC(=O)[C@H](CC(C)C)NC(=O)[C@@H]2CSSC[C@H](NC(=O)CNC(=O)[C@H](Cc3c[nH]c4ccccc34)NC(=O)[C@H](Cc3ccc(O)cc3)NC(=O)[C@@H]3CCCN3C(=O)[C@H](CCC(N)=O)NC1=O)C(=O)NCC(=O)N[C@@H](CCC(=O)O)C(=O)N[C@@H](CC(N)=O)C(=O)N[C@@H](Cc1ccccc1)C(=O)N[C@@H](CC(C)C)C(=O)N2", "note": "[VEGF_CKP9.63.1] (H-GCDVMQPYWGCGENFLCLAGCVCHWYNSCG-OH; disulfide 2-21, 11-17, 23-29 (inferred); N-terminus and C-terminus assumed)", "values": [{"measurement": "kd", "setting": "hVEGF-A (8-109); hVEGF-A (8-109), Table 29", "result": 0.37}, {"measurement": "S/N (signal to noise ratio as compared to BSA control)", "setting": "hVEGF(8-109); Table 27", "result": 25.2}, {"measurement": "ELISA", "setting": "hVEGF(8-109); [1]", "result": 2.0}]}, {"smiles": "CSCC[C@@H]1NC(=O)[C@H](CC(=O)O)NC(=O)[C@H](CCCNC(=N)N)NC(=O)CNC(=O)[C@@H]2CSSC[C@H](NC(=O)[C@H](CC(=O)O)NC1=O)C(=O)N[C@@H](CC(C)C)C(=O)N[C@@H](C)C(=O)NCC(=O)N[C@H](C(=O)N[C@H](C(=O)N[C@H]1CSSC[C@@H](C(=O)NCC(=O)O)NC(=O)[C@H](CO)NC(=O)[C@H](CC(N)=O)NC(=O)[C@H](Cc3ccc(O)cc3)NC(=O)[C@H](Cc3c[nH]c4ccccc34)NC(=O)[C@H](Cc3c[nH]cn3)NC1=O)C(C)C)CSSC[C@H](NC(=O)CN)C(=O)N[C@@H](CC(=O)O)C(=O)N[C@@H](C(C)C)C(=O)N[C@@H](CCSC)C(=O)N[C@@H](CCC(N)=O)C(=O)N1CCC[C@H]1C(=O)N[C@@H](Cc1ccc(O)cc1)C(=O)N[C@@H](Cc1c[nH]c3ccccc13)C(=O)NCC(=O)N2", "note": "[VEGF_CKP9.63.27] (H-GCDVMQPYWGCGRDMDCLAGCVCHWYNSCG-OH; disulfide 2-21, 11-17, 23-29 (inferred); N-terminus and C-terminus assumed)", "values": [{"measurement": "kd", "setting": "hVEGF-A (8-109); hVEGF-A (8-109), Table 29", "result": 0.15}, {"measurement": "S/N (signal to noise ratio as compared to BSA control)", "setting": "hVEGF(8-109); Table 27", "result": 26.0}, {"measurement": "ELISA", "setting": "hVEGF(8-109); [1]", "result": 2.1}]}]}
